# Measurements as given in PubChem BioAssay (NCI).
#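 Five compound concentrations were applied to cells in 96-well plates for 48 hours; endpoints were derived by simple linear interpolation of the resulting dose-response curve. The concentration for full growth arrest is given as TGI.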
# How the values were obtained:
# Assay in all cases: NCI anticancer screen, dose series, 48 h
# [1] = test system: A549 NSCLC
# [2] = test system: KM12 colon
# [3] = test system: DU-145 prostate
# [4] = test system: NCI-H226 lung
# [5] = test system: MALME-3M melanoma
# [6] = test system: SF-295 CNS
# [7] = test system: HCT-116 colon
# [8] = test system: CAKI-1 renal
# [9] = test system: UO-31 renal
# [10] = test system: MDA-N
# [11] = test system: HL-60(TB) leukemia
# [12] = test system: SW-620 colon
# [13] = test system: NCI/ADR-RES ovarian
# [14] = test system: NCI-H522 lung
# [15] = test system: RXF 393 renal
# [16] = test system: SK-MEL-5 melanoma
# [17] = test system: SF-539 CNS
# [18] = test system: MDA-MB-435
# [19] = test system: UACC-62 melanoma
# [20] = test system: PC-3 prostate
# [21] = test system: TK-10 renal
# [22] = test system: NCI-H23 lung
# [23] = test system: HCT-15 colon
# [24] = test system: CCRF-CEM leukemia
# [25] = test system: LOX IMVI melanoma
# [26] = test system: HT29 colon
# [27] = test system: SR leukemia
# [28] = test system: EKVX NSCLC
# [29] = test system: K-562 leukemia
# [30] = test system: SN12C renal
# [31] = test system: OVCAR-8 ovarian
# [32] = test system: SNB-19 CNS
# [33] = test system: ACHN renal
# [34] = test system: UACC-257 melanoma
# [35] = test system: BT-549 breast
# [36] = test system: M14 melanoma
# [37] = test system: U251 CNS
# [38] = test system: RPMI-8226 leukemia
# [39] = test system: NCI-H460 lung
# [40] = test system: SF-268 CNS
# [41] = test system: A498 renal
# [42] = test system: OVCAR-5 ovarian
# [43] = test system: OVCAR-3 ovarian
# [44] = test system: SK-MEL-2 melanoma
# [45] = test system: MOLT-4 leukemia
# [46] = test system: MCF7 breast
# [47] = test system: COLO 205 colon
# [48] = test system: SK-OV-3 ovarian
# [49] = test system: MDA-MB-231 breast
# [50] = test system: IGROV1 ovarian
# [51] = test system: HOP-62 NSCLC
# [52] = test system: HS 578T breast
# [53] = test system: HCC-2998 colon
# [54] = test system: OVCAR-4 ovarian
# [55] = test system: SNB-75 CNS
# [56] = test system: T-47D breast
# [57] = test system: HOP-92 NSCLC
# [58] = test system: 786-0 renal
# [59] = test system: SK-MEL-28 melanoma
compound,measurement,setting,value
Oc1ccc(-c2nc3cc(C(F)(F)F)ccc3s2)cc1,TGI,[1],29.7 µM
same,TGI,[2],27.8 µM
same,TGI,[3],30 µM
same,TGI,[4],32.6 µM
same,TGI,[5],26.6 µM
same,TGI,[6],28.2 µM
same,TGI,[7],27.6 µM
same,TGI,[8],29.1 µM
same,TGI,[9],26.8 µM
same,TGI,[10],32.7 µM
same,TGI,[11],40.7 µM
same,TGI,[12],40.2 µM
same,TGI,[13],35.5 µM
same,TGI,[14],25.7 µM
same,TGI,[15],33.2 µM
same,TGI,[16],30 µM
same,TGI,[17],34.2 µM
same,TGI,[18],29.5 µM
same,TGI,[19],27.2 µM
same,TGI,[20],27.9 µM
same,TGI,[21],33.1 µM
same,TGI,[22],30.5 µM
same,TGI,[23],22.1 µM
same,TGI,[24],27.8 µM
same,TGI,[25],26.6 µM
same,TGI,[26],35.9 µM
same,TGI,[27],35.2 µM
same,TGI,[28],16.9 µM
same,TGI,[29],> 100 µM
same,TGI,[30],32.6 µM
same,TGI,[31],29.4 µM
same,TGI,[32],31.4 µM
same,TGI,[33],27.6 µM
same,TGI,[34],32.2 µM
same,TGI,[35],28.5 µM
same,TGI,[36],29.2 µM
same,TGI,[37],30.5 µM
same,TGI,[38],35.4 µM
same,TGI,[39],30.1 µM
same,TGI,[40],30.8 µM
same,TGI,[41],32.6 µM
same,TGI,[42],30.9 µM
same,TGI,[43],28.3 µM
same,TGI,[44],30.1 µM
same,TGI,[45],87.5 µM
same,TGI,[46],23.3 µM
same,TGI,[47],33.1 µM
same,TGI,[48],40.7 µM
same,TGI,[49],31 µM
same,TGI,[50],23.8 µM
O=C(O)c1cc(NCc2cc(O)ccc2O)ccc1O,TGI,[1],> 100 µM
same,TGI,[2],> 100 µM
same,TGI,[3],> 100 µM
same,TGI,[4],> 100 µM
same,TGI,[6],> 100 µM
same,TGI,[7],> 100 µM
same,TGI,[8],> 100 µM
same,TGI,[9],> 100 µM
same,TGI,[51],> 100 µM
same,TGI,[52],> 100 µM
same,TGI,[53],> 100 µM
same,TGI,[10],55.1 µM
same,TGI,[54],> 100 µM
same,TGI,[12],50.6 µM
same,TGI,[13],> 100 µM
same,TGI,[14],40.7 µM
same,TGI,[15],> 100 µM
same,TGI,[16],> 100 µM
same,TGI,[17],> 100 µM
same,TGI,[18],> 100 µM
same,TGI,[55],> 100 µM
same,TGI,[19],> 100 µM
same,TGI,[20],> 100 µM
same,TGI,[21],> 100 µM
same,TGI,[22],> 100 µM
same,TGI,[23],> 100 µM
same,TGI,[24],> 100 µM
same,TGI,[26],> 100 µM
same,TGI,[28],> 100 µM
same,TGI,[30],> 100 µM
same,TGI,[32],> 100 µM
same,TGI,[56],> 100 µM
same,TGI,[33],> 100 µM
same,TGI,[57],> 100 µM
same,TGI,[58],> 100 µM
same,TGI,[34],> 100 µM
same,TGI,[35],> 100 µM
same,TGI,[36],> 100 µM
same,TGI,[37],> 100 µM
same,TGI,[39],> 100 µM
same,TGI,[40],> 100 µM
same,TGI,[41],> 100 µM
same,TGI,[42],> 100 µM
same,TGI,[43],> 100 µM
same,TGI,[44],> 100 µM
same,TGI,[46],> 100 µM
same,TGI,[47],> 100 µM
same,TGI,[59],> 100 µM
same,TGI,[48],> 100 µM
same,TGI,[49],> 100 µM
same,TGI,[50],> 100 µM
